Measurements as given in US20250025411A1, “READILY SOLUBLE AND THERMOSTABLE GLUCAGON FORMULATIONS AND DELIVERY FOR MINI-DOSING AND CLOSED -LOOP PROPHYLACTIC TREATMENT OF HYPOGLYCEMIA” (Massachusetts Institute of Technology, priority 2023, published 2025).

Assay: High throughput screening of water-soluble solid excipients for glucagon dissolution
Assay type: physicochemical
Conditions: for Fold change vs. PBS Avg.: 30-minute incubation in pH 7.4 PBS containing 1 mg/mL excipient; for Fold change vs. PBS Avg. / Glucagon concentration Avg.: 37° C.; for Glucagon concentration Avg.: solubilized glucagon after 30-minute incubation of lyophilized glucagon in pH 7.4 PBS containing 1 mg/mL excipient; for enhancement of glucagon dissolution (statistical significance compared to no excipient): 30-minute incubation in pH 7.4 PBS at 37° C.

| Molecule | Fold change vs. PBS Avg. [fold] | Glucagon concentration Avg. [mg/mL] | enhancement of glucagon dissolution (statistical significance compared to no excipient) |
| --- | --- | --- | --- |
| O=S(=O)(O)CCCN1CCOCC1 [MOPS] | 0.80 | 0.17 | – |
| O=C(O)c1ccccc1 [Benzoic acid] | 15.09 | 3.25 | successfully enhanced the dissolution of glucagon |
| O=C(O)CN(CCN(CC(=O)O)CC(=O)O)CCN(CC(=O)O)CC(=O)O [Pentetic Acid] | 1.95 | 0.42 | – |
| O.O=C[C@H](O)[C@@H](O)[C@H](O)[C@H](O)CO [Dextrose Monohydrate] | 1.09 | 0.24 | – |
| CCCCCCCC[N+](C)(C)CCCS(=O)(=O)[O-] [Octyl sulfobetaine] | 1.15 | 0.25 | – |
| N[C@@H](CS)C(=O)O [L-Cysteine] | 0.60 | 0.13 | – |
| CC(C)(S)[C@@H](N)C(=O)O [D-Penicillamine] | 1.42 | 0.31 | – |
| NC(=O)CNCCS(=O)(=O)O [ACES] | 1.12 | 0.24 | – |
| OC[C@H]1O[C@@H]2O[C@H]3[C@H](O)[C@@H](O)[C@@H](O[C@H]4[C@H](O)[C@@H](O)[C@@H](O[C@H]5[C@H](O)[C@@H](O)[C@@H](O[C@H]6[C@H](O)[C@@H](O)[C@@H](O[C@H]7[C@H](O)[C@@H](O)[C@@H](O[C@H]8[C@H](O)[C@@H](O)[C@@H](O[C@H]1[C@H](O)[C@H]2O)O[C@@H]8CO)O[C@@H]7CO)O[C@@H]6CO)O[C@@H]5CO)O[C@@H]4CO)O[C@@H]3CO [B-Cyclodextrin] | 1.40 | 0.30 | – |
| O=S(=O)([O-])CCC[P+](c1ccccc1)(c1ccccc1)c1ccccc1 [3-(Triphenylphosphonio)propane-1-sulfonate] | 1.21 | 0.26 | – |
| Bovine serum albumin | 2.86 | 0.62 | – |
| [Cl-].[K+] [Potassium chloride] | 1.89 | 0.41 | – |
| N[C@@H](Cc1c[nH]c2ccccc12)C(=O)O [L-Tryptophan] | 1.54 | 0.33 | – |
| Methyl-B-Cyclodextrin | 1.27 | 0.27 | – |
| NC(=O)c1cccnc1 [Niacinamide] | 1.17 | 0.25 | – |
| NCCCC[C@H](N)C(=O)O [L-lysine] | 2.84 | 0.61 | – |
| O=S(=O)(O)CCN1CCN(CCO)CC1 [HEPES] | 1.15 | 0.25 | – |
| O=C([O-])[C@H](O)[C@@H](O)[C@H](O)[C@H](O)CO.[Na+] [Sodium Gluconate] | 0.69 | 0.15 | – |
| O=C(O)[C@H](O)[C@@H](O)[C@H](O[C@@H]1O[C@H](CO)[C@H](O)[C@H](O)[C@H]1O)[C@H](O)CO [Lactobionic Acid] | 1.35 | 0.29 | – |
| CC(C)[C@H](N)C(=O)O [Valine] | 1.89 | 0.41 | – |
| O=S(=O)(O)CCN1CCN(CCS(=O)(=O)O)CC1 [Piperazine-N,N′-bis(2-ethanesulfonic acid)] | 3.70 | 0.80 | successfully enhanced the dissolution of glucagon |
| O=C(O)/C=C\C(=O)O [Maleic Acid] | 0.34 | 0.07 | – |
| CC(C)(O)C(Cl)(Cl)Cl [Chlorobutanol Hemihydrate] | 1.83 | 0.39 | – |
